Data from PMC8222254, “Self-assembly of an anion receptor with metal-dependent kinase inhibition and potent in vitro anti-cancer properties” (Nature Communications, 2021).
Where “and” joins values, the source holds several entries; their conditions need not be identical. Equal entries are not always repeated. Where two headings read alike, the source gives them in different places.

Experiments:
Experiment in all cases: Chemosensitivity, 96 h continuous exposure, MTT assay
Format in all cases: cell-based, human
[1] = system: HCT116 p53-/-
Source text: (§1) All cell lines were purchased from and maintained as monolayers as described by the American Type Culture Collection with the exception of the p53^+/+ and p53^−/− isogenic clones of HCT116 human colorectal adenocarcinoma cells which were a kind gift from Professor Bert Vogelstein[54]. GBM1 cells were established from a primary GBM tumour by Heiko Wurdak and colleagues[32],[33]. Non-cancerous adult brain neural progenitor (NP1) cells were derived from a patient undergoing surgery to treat epilepsy[32],[33]. Cell culture and growth media for NP1 and GBM1 cells were as described[32],[33]. The response of cells following a continuous 96-h exposure to test compounds and platinates was determined using the MTT assay. Potency was recorded as the IC50 and the selectivity index (SI) was defined as the ratio of IC50 values for non-cancer to cancer cell lines with values >1 representing selectivity for cancer cells as opposed to non-cancer cells.
(§2) All cell lines used were maintained at low passage in antibiotic-free media. HT29, DLD-1, HCT116 p53^+/+ and HCT116 p53^−/− are all colorectal adenocarcinoma cell lines derived from different individuals and harbour different combinations of oncogenic lesions (except for the HCT116 isogenic cancer cell clones that are genetically identical except for p53 status). PSN-1, BxPC-3 and MiaPaCa2 are pancreatic carcinoma cell lines and A549 and H460 are lung carcinoma cell lines. HT29, DLD-1, PSN-1, BxPC-3, A549 and H460 cell lines were cultured in RPMI-1640 growth media (Sigma) containing 2 mM L-glutamine, 1 mM sodium pyruvate and 10% foetal bovine serum (FBS). HCT116 (p53^+/+ and p53^−/−) and MiaPaCa2 cell lines were cultured in Dulbecco’s Modified Eagle’s Medium (Sigma), 2 mM L-glutamine and 10% FBS. The ARPE-19 retinal epithelial non-cancer cell line was cultured in DMEM/F12 media (Gibco), 2 mM L-glutamine, 1 mM sodium pyruvate and 10% FBS. The MCF10A non-cancerous human breast epithelial cell line was cultured in Minimal Essential Media Eagle (Sigma), 2 mM L-glutamine, 1 mM sodium pyruvate, 10% FBS and 1x non-essential amino acids (NEAA). NP1 and GBM1 cells were cultured on plasticware coated with poly-L-ornithine (5 µg/ml) and laminin (2.4 µg/ml)[32],[33]. NP1 cells were grown in DMEM/F12 media (Gibco) supplemented with 5% FBS, 20 ng/ml hFGF, 20 ng/ml rhEGF, 0.5x B-27 supplement (Gibco), 0.5x N-2 supplement (Gibco) and 1x GLUTAMAX (Gibco). GBM1 cells were cultured in Neurobasal media (Gibco) supplemented with 40 ng/ml hFGF, 40 ng/ml rhEGF, 0.5x B-27 supplement (Gibco) and 0.5x N-2 supplement (Gibco).
(§3) [L2(Metal)3]^6+ and all the other self-assembling complexes were freshly formed by adding DMSO to individual components and mixing together by pipetting. These were then further diluted in cell culture media such that the final DMSO concentration that cells were exposed to was 0.2% (vehicle control). Cisplatin, oxaliplatin and carboplatin were dissolved in phosphate buffered saline. Cell lines were seeded into 96 well plates at 2 × 10^3 cells per well and incubated overnight at 37 °C. GBM1 cancer stem-like cells were seeded at 3 × 10^3 cells per well and NP1 neural progenitors were seeded at 1.5 × 10^3 cells per well. The following day, media was removed and replaced with fresh media containing test compounds at a range of concentrations. Cells were incubated with test compounds for a further 96 h after which the media was removed and replaced with fresh media (200 μl/well). MTT was added (20 μl at 5 mg/ml) and cells were incubated for a further 4 h. Media and MTT were removed and formazan crystals were dissolved in 150 μl of DMSO and the absorbance of the resulting solution determined at 540 nm. Dose response curves were constructed, and the concentration required to reduce cell growth by 50% (IC50) determined.

[2] = system: A549
Source text: as §1, §2, §3

[3] = system: HT-29
Source text: as §1, §2, §3

[4] = system: PSN1
Source text: as §1, §2, §3

[5] = system: MiaPaCa2
Source text: as §1, §2, §3

[6] = system: ARPE-19 non-cancer cells
Source text: as §1, §2, §3

[7] = system: H460
Source text: as §1, §2, §3

O=S(=O)([O-])[O-].[Cu+2].[Cu+2].[Cu+2].c1ccc(-c2csc(NCCN(CCNc3nc(-c4ccccn4)cs3)CCNc3nc(-c4ccccn4)cs3)n2)nc1.c1ccc(-c2csc(NCCN(CCNc3nc(-c4ccccn4)cs3)CCNc3nc(-c4ccccn4)cs3)n2)nc1 [[L2Cu3(SO4)]4+]
IC50 ([1]; HCT116 p53-/-, read-out: Mean IC50 values): 78 nM | IC50 ([1]; HCT116 p53-/-, single replicate, read-out: IC50 values for each replicate): 78 nM and 77 nM and 79 nM | Selectivity index (ARPE19) ([1]; IC50 ARPE-19 / IC50 HCT116 p53-/-): 1542.44 | Selectivity index (MCF10A) ([1]; IC50 MCF10A / IC50 HCT116 p53-/-): 637.59 | Relative potency (+ anion to no anion), Ratio + anion:no anion ([1]; ratio of IC50, HCT116 p53-/-): 0.57 | Selectivity indices relative to ARPE-19, Ratio + anion:no anion ([1]; ratio of SI (ARPE-19), HCT116 p53-/-): 4.015 | Selectivity indices relative to MCF10A, Ratio + anion:no anion ([1]; ratio of SI (MCF 10A), HCT116 p53-/-): 1.810 | IC50 ([2]; A549, mean of replicates, read-out: Mean IC50): 680 nM | IC50 ([2]; A549, read-out: Mean IC50 values): 680 nM | IC50 ([2]; A549, single replicate, read-out: IC50 values for each replicate): 747 nM and 620 nM and 667 nM and 685 nM | Selectivity index (ARPE19) ([2]; IC50 ARPE-19 / IC50 A549): 176.93 | Selectivity index (MCF10A) ([2]; IC50 MCF10A / IC50 A549): 73.14 | Relative potency (+ anion to no anion), Ratio + anion:no anion ([2]; ratio of IC50, A549): 2.92 | Selectivity indices relative to ARPE-19, Ratio + anion:no anion ([2]; ratio of SI (ARPE-19), A549): 0.783 | Selectivity indices relative to MCF10A, Ratio + anion:no anion ([2]; ratio of SI (MCF 10A), A549): 0.353 | IC50 ([3]; HT29, mean of replicates, read-out: Mean IC50): 188 nM | IC50 ([3]; HT29, read-out: Mean IC50 values): 188 nM | IC50 ([3]; HT-29, single replicate, read-out: IC50 values for each replicate): 88 nM and 240 nM and 182 nM | Selectivity index (ARPE19) ([3]; IC50 ARPE-19 / IC50 HT29): 639.95 | Selectivity index (MCF10A) ([3]; IC50 MCF10A / IC50 HT29): 264.53 | Relative potency (+ anion to no anion), Ratio + anion:no anion ([3]; ratio of IC50, HT29): 0.88 | Selectivity indices relative to ARPE-19, Ratio + anion:no anion ([3]; ratio of SI (ARPE-19), HT29): 2.602 | Selectivity indices relative to MCF10A, Ratio + anion:no anion ([3]; ratio of SI (MCF 10A), HT29): 1.173 | Selectivity index (ARPE19) ([4]; IC50 ARPE-19 / IC50 PSN1): 246.54 | Selectivity index (MCF10A) ([4]; IC50 MCF10A / IC50 PSN1): 101.91 | IC50 ([4]; PSN1, mean of replicates, read-out: Mean IC50): 488 nM | IC50 ([4]; PSN1, read-out: Mean IC50 values): 488 nM | IC50 ([4]; PSN1, single replicate, read-out: IC50 values for each replicate): 449 nM and 779 nM and 235 nM | Relative potency (+ anion to no anion), Ratio + anion:no anion ([4]; ratio of IC50, PSN1): 0.0756 | Selectivity indices relative to ARPE-19, Ratio + anion:no anion ([4]; ratio of SI (ARPE-19), PSN1): 30.213 | Selectivity indices relative to MCF10A, Ratio + anion:no anion ([4]; ratio of SI (MCF 10A), PSN1): 13.624 | Selectivity index (ARPE19) ([5]; IC50 ARPE-19 / IC50 MiaPaCa2): 2.28 | Selectivity index (MCF10A) ([5]; IC50 MCF10A / IC50 MiaPaCa2): 0.94 | IC50 ([5]; MiaPaCa2, mean of replicates, read-out: Mean IC50): 52700 nM | IC50 ([5]; MiaPaCa2, read-out: Mean IC50 values): 52700 nM | IC50 ([5]; MiaPaCa2, single replicate, read-out: IC50 values for each replicate): 63700 nM and 63600 nM and 47200 nM and 43500 nM and 49700 nM and 48300 nM | Relative potency (+ anion to no anion), Ratio + anion:no anion ([5]; ratio of IC50, MiaPaCa2): 4.46 | Selectivity indices relative to ARPE-19, Ratio + anion:no anion ([5]; ratio of SI (ARPE-19), MiaPaCa2): 0.512 | Selectivity indices relative to MCF10A, Ratio + anion:no anion ([5]; ratio of SI (MCF 10A), MiaPaCa2): 0.231 | IC50 ([6]; ARPE-19, mean of replicates, read-out: Mean IC50): 120000 nM | IC50 ([6]; ARPE-19, single replicate, read-out: IC50 values for each replicate): 126000 nM and 121000 nM and 113000 nM | IC50 ([6]; ARPE-19 non-cancer, read-out: Mean IC50 values): 120000 nM | Relative potency (+ anion to no anion), Ratio + anion:no anion ([6]; ratio of IC50, ARPE-19): 2.29 | IC50 ([7]; H460, mean of replicates, read-out: Mean IC50): 252 nM | IC50 ([7]; H460, read-out: Mean IC50 values): 252 nM | IC50 ([7]; H460, single replicate, read-out: IC50 values for each replicate): 438 nM and 207 nM and 188 nM and 219 nM and 227 nM and 234 nM | Selectivity index (ARPE19) ([7]; IC50 ARPE-19 / IC50 H460): 477.42 | Selectivity index (MCF10A) ([7]; IC50 MCF10A / IC50 H460): 197.35 | Relative potency (+ anion to no anion), Ratio + anion:no anion ([7]; ratio of IC50, H460): 0.91 | Selectivity indices relative to ARPE-19, Ratio + anion:no anion ([7]; ratio of SI (ARPE-19), H460): 2.504 | Selectivity indices relative to MCF10A, Ratio + anion:no anion ([7]; ratio of SI (MCF 10A), H460): 1.129
